PubChem BioAssay (NCI)
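Each compound was tested at five concentrations against cells in 96-well plates for 48 hours. TGI denotes the concentration required for complete inhibition of growth.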

Assays:
Test in all cases: DTP human tumour cell line panel, 48 h
SK-MEL-2 melanoma = tested on: SK-MEL-2 melanoma
HCC-2998 colon = tested on: HCC-2998 colon
KM12 colon = tested on: KM12 colon
SN12C renal = tested on: SN12C renal
TK-10 renal = tested on: TK-10 renal
MOLT-4 leukemia = tested on: MOLT-4 leukemia
SR leukemia = tested on: SR leukemia
HCT-116 colon = tested on: HCT-116 colon
SK-MEL-28 melanoma = tested on: SK-MEL-28 melanoma
NCI-H23 lung = tested on: NCI-H23 lung
OVCAR-8 ovarian = tested on: OVCAR-8 ovarian
SF-268 CNS = tested on: SF-268 CNS
A549 NSCLC = tested on: A549 NSCLC
M14 melanoma = tested on: M14 melanoma
T-47D breast = tested on: T-47D breast
MDA-MB-231 breast = tested on: MDA-MB-231 breast
MDA-MB-435 = tested on: MDA-MB-435
NCI/ADR-RES ovarian = tested on: NCI/ADR-RES ovarian
BT-549 breast = tested on: BT-549 breast
UACC-62 melanoma = tested on: UACC-62 melanoma

Compound | TGI (SK-MEL-2 melanoma) [µM] | TGI (HCC-2998 colon) [µM] | TGI (KM12 colon) [µM] | TGI (SN12C renal) [µM] | TGI (TK-10 renal) [µM] | TGI (MOLT-4 leukemia) [µM] | TGI (SR leukemia) [µM] | TGI (HCT-116 colon) [µM] | TGI (SK-MEL-28 melanoma) [µM] | TGI (NCI-H23 lung) [µM] | TGI (OVCAR-8 ovarian) [µM] | TGI (SF-268 CNS) [µM] | TGI (A549 NSCLC) [µM] | TGI (M14 melanoma) [µM] | TGI (T-47D breast) [µM] | TGI (MDA-MB-231 breast) [µM] | TGI (MDA-MB-435) [µM] | TGI (NCI/ADR-RES ovarian) [µM] | TGI (BT-549 breast) [µM] | TGI (UACC-62 melanoma) [µM]
COc1ccc(-c2cc3[nH]nc(N)c3c(=O)o2)cc1 | > 100 | > 100 | > 100 | > 100 | > 100 | > 100 | > 100 | > 100 | > 100 | > 100 | > 100 | > 100 | > 100 | > 100 | – | – | – | – | – | –
Cc1ccc(S(=O)(=O)N2CCCSCC2)cc1 | – | > 100 | > 100 | > 100 | > 100 | > 100 | > 100 | > 100 | > 100 | > 100 | > 100 | > 100 | > 100 | – | > 100 | > 100 | > 100 | > 100 | – | –
CC1(C)OCC=CCO1 | > 100 | > 100 | > 100 | > 100 | > 100 | > 100 | – | > 100 | > 100 | > 100 | > 100 | > 100 | > 100 | > 100 | > 100 | – | > 100 | > 100 | > 100 | > 100
Oc1ccc(-c2nc3ccc(Cl)cc3s2)cc1 | 34 | – | 34.2 | 35.7 | 34.7 | > 100 | 51.1 | 29.5 | – | 36.5 | 39 | 33.8 | 45.2 | > 100 | – | 45.5 | 35.6 | 57.1 | 33.3 | 31.2
CC1=C(C)Cc2c(O)ccc(O)c2C1 | – | – | > 100 | 45.8 | 36.9 | 97.2 | 38.8 | 29.5 | 25 | > 100 | 32.1 | 31.8 | 41.9 | 30 | 63.4 | 44.1 | 30.5 | > 100 | – | 30.1
O=C1C(Cl)=C(Nc2ccc(S(=O)(=O)Nc3ccccn3)cc2)C(=O)c2ccccc21 | 15.3 | 24.8 | 32.4 | 30.4 | 22.7 | 25.5 | 16.2 | 18.8 | 42.9 | 25.2 | 15.9 | 29.3 | 41.9 | 15.4 | 39.7 | 22 | 14 | > 40.9 | 29.8 | 11.8
CC(=O)C1CC[C@@H]2[C@H](CC[C@]3(C)[C@@H](O)CC[C@@H]23)[C@H]1C(=O)O (some centres undefined) | > 100 | > 100 | > 100 | – | > 100 | > 100 | > 100 | – | > 100 | > 100 | > 100 | > 100 | > 100 | > 100 | – | > 100 | > 100 | > 100 | > 100 | > 100
COc1cc(C(O)(CC#N)c2cc3c(cc2Br)OCO3)cc(OC)c1OC (centres undefined) | > 100 | 66.1 | 98.7 | > 100 | > 100 | > 100 | – | > 100 | > 100 | > 100 | > 100 | > 100 | > 100 | 50.5 | > 100 | 54.5 | 13.7 | > 100 | > 100 | > 100
N/C(=N\N=C\c1ccc2c(c1)OCCO2)NO | 70.4 | – | > 100 | > 100 | – | > 100 | – | > 100 | > 100 | > 100 | > 76.6 | > 49.1 | > 82.9 | – | – | – | – | > 55.1 | – | > 34.4
O=C1c2ccccc2C(=O)N1CC(O)COc1cccc2ccccc12 (centres undefined) | – | > 100 | – | – | > 100 | > 100 | > 100 | > 100 | > 100 | – | > 100 | > 100 | > 100 | > 100 | – | > 100 | > 100 | > 100 | – | > 100
NC(=S)N/N=C\c1nccc2ccccc12 | > 100 | > 68.4 | > 100 | 0.779 | 39.8 | 0.827 | 0.731 | > 59.4 | 0.951 | > 100 | 0.925 | 1.47 | > 100 | 2.42 | > 100 | 35.7 | > 100 | 1.13 | 13.9 | 0.538
